Measured values reported in PMC10879537 (Nature Communications, 2024).
“And” between values parts separate entries of the source, which are not always exact repeats. Equal entries are not always repeated. Where two headings read alike, the source gives them in different places.

Tests used:
[1] = test system: SADS-CoV strain CN/GDWT/2017; assay: cells; assay type: cell-based, swine acute diarrhoea syndrome coronavirus (SADS-CoV)
GX_P2V [2] = assay: microbe, parasite or virus in culture; assay type: cell-based, Guangxi pangolin-CoV (GX_P2V); details: for inhibition at 0.49485 µM / inhibition at 0.79588 µM / inhibition at 1.09691 µM / inhibition at 1.39794 µM / inhibition at 1.69897 µM / inhibition at 0.39 µM / inhibition at 0.78 µM / inhibition at 0.193125 µM: Vero C1008, 48 h, read-out: Percentage of Inhibition (%)
SARS-CoV-2 trVLP [3] = assay type: cell-based
[4] = test system: SARS-CoV-2 pseudotyped virus; assay: microbe, parasite or virus in culture; assay type: cell-based
PEDV strain CV777 = assay: microbe, parasite or virus in culture; assay type: cell-based, porcine epidemic diarrhea virus (PEDV)
[5] = test system: SARS-CoV-2 live virus (SARS-CoV-2/WH-09/human/2020/CHN); assay: microbe, parasite or virus in culture; assay type: cell-based
GX_P2V [6] = assay: organism not typed; assay type: cell-based, Guangxi pangolin-CoV (GX_P2V)
in vitro [7] = details: African green monkey
SARS-CoV-2 trVLP [8] = assay: microbe, parasite or virus in culture
SARS-CoV-2 trVLP [9] = test system: SARS-CoV-2 trVLP
[10] = test system: SARS-CoV pseudotyped virus; assay: microbe, parasite or virus in culture; assay type: cell-based; details: for EC50: read-out: EC50 against SARS-CoV pseudotyped virus
[11] = test system: MERS-CoV pseudotyped virus; assay: microbe, parasite or virus in culture; assay type: cell-based
in vitro [12] = details: human, Caco-2
in vitro [13] = details: human
[14] = Huh-7, read-out: EC50 against SADS-CoV
[15] = Vero C1008, read-out: EC50 GX_P2V
[16] = Severe acute respiratory syndrome coronavirus 2, read-out: EC50 SARS-CoV-2pseudotypedvirus
[17] = Porcine epidemic diarrhea virus, Huh-7, read-out: EC50 against PEDV
[18] = Severe acute respiratory syndrome coronavirus 2, Vero C1008, read-out: SARS-CoV-2 (Vero E6) EC50
[19] = Severe acute respiratory syndrome coronavirus 2, read-out: EC50 SARS-CoV-2 trVLP
[20] = Severe acute respiratory syndrome coronavirus
[21] = Middle East respiratory syndrome-related coronavirus, Huh-7, read-out: EC50 against MERS-CoV pseudotyped virus
[22] = CC50, cytotoxicity to Huh 7 cells (Fig. 4B, SADS-CoV panel)
[23] = Severe acute respiratory syndrome coronavirus 2, Vero C1008, read-out: EC50 against diverse SARS-CoV-2-related viruses (summary statement)
[24] = Severe acute respiratory syndrome coronavirus 2, 24 h, read-out: EC50 against SARS-CoV-2 pseudotyped virus
[25] = Vero C1008, read-out: EC50 against GX_P2V

Row | Molecule | EC50 [1, 14] [µM] | inhibition at 0.49485 µM (GX_P2V [2]) [%] | inhibition at 0.79588 µM (GX_P2V [2]) [%] | inhibition at 1.09691 µM (GX_P2V [2]) [%] | Time of addition of anti-SARS-CoV-2 trVLPs activity, Entry (SARS-CoV-2 trVLP [3]) | Time of addition of anti-SARS-CoV-2 trVLPs activity, Full-time (SARS-CoV-2 trVLP [3]) | Time of addition of anti-SARS-CoV-2 trVLPs activity, Post-entry (SARS-CoV-2 trVLP [3]) | EC50 (PEDV strain CV777; [17]) [µM] | EC50 [5, 18] [µM] | Time of addition of anti-GX_P2V activity, Entry (GX_P2V [6]) | Time of addition of anti-GX_P2V activity, Full-time (GX_P2V [6]) | Time of addition of anti-GX_P2V activity, Post-entry (GX_P2V [6]) | CC50 at 48 h (in vitro [7]) [µM] | EC50 (SARS-CoV-2 trVLP [8]; [19]) [µM] | SI (SARS-CoV-2 trVLP, Caco 2-N) (SARS-CoV-2 trVLP [9]) | EC50 [10, 20] [µM] | EC50 [11, 21] [µM] | CC50 at 48 h (in vitro [12]) [µM] | CC50 (in vitro [13]) [µM] | CC50 (in vitro [13]; [22]) [µM] | other results
1 | COc1ccc2cc1Oc1ccc(cc1)C[C@H]1c3cc(c(OC)cc3CCN1C)Oc1c(OC)c(OC)cc3c1[C@H](C2)N(C)CC3 [Tetrandrine, reference compound] | 2.19 | 11.3 | 70.2 | 100 | 36.455 and 44.889 and 48.206 | 99.957 and 99.767 and 99.878 | 89.364 and 97.266 and 89.859 | 0.44 | 3.13 | 99.931 and 99.920 | 99.968 and 99.974 and 99.976 | 99.868 and 99.847 and 99.852 | 21.9 | 2.8 | > 17.86 | 3.04 | 2.17 | > 50 | 11.7 | > 12.5 | inhibition at 1.39794 µM (GX_P2V [2]): 100%; inhibition at 1.69897 µM (GX_P2V [2]): 100%; EC50 (GX_P2V [2]; [15]): 5.21 µM; EC50 [4, 16]: 3.2 µM; CC50 (in vitro [7]): 21.9 µM; Percentage of Inhibition (%) [10]: 99.687%; Percentage of Inhibition (%) [11]: 99.674% and 99.511%
2 | COc1ccc2cc1Oc1ccc(cc1)C[C@H]1c3cc(c(OC)cc3CCN1C)Oc1c(O)c(OC)cc3c1[C@H](C2)N(C)CC3 [Fangchinoline, fangchinoline] | 2.23 | 97.5 | 95.4 | 100 | 64.788 and 62.324 and 70.383 | 98.422 and 98.513 and 99.025 | 80.036 and 76.348 and 75.577 | 0.2 | 5.01 | 98.527 and 98.293 and 98.495 | 99.636 and 99.587 and 99.561 | 96.715 and 95.065 and 93.301 | > 12.5 | 1.93 | 24.05 | 1.73 | 4.47 | 46.4 | 12.3 | > 12.5 | EC50 (GX_P2V [2]; [23]): < 2 µM; inhibition at 0.39 µM (GX_P2V [2]): 21%; inhibition at 0.78 µM (GX_P2V [2]): 14%; EC50 (GX_P2V [2]; [15]): 1.97 µM; Percentage of Inhibition (%), SARS-CoV-2 pseudotyped virus [4]: 100%; EC50 [4, 24]: 1.16 µM; Percentage of Inhibition (%) (SARS-CoV-2 trVLP [9]): 100%
3 | COc1cc2c(cc1O)[C@@H](Cc1ccc(O)c(Oc3ccc(C[C@@H]4c5cc(OC)c(OC)cc5CCN4C)cc3)c1)N(C)CC2 [Daurisoline, daurisoline] | 2.8 | – | – | – | 21.082 and 20.351 and 25.494 | 69.364 and 69.350 and 65.328 | 59.015 and 61.872 and 61.323 | 0.82 | 12.5 | 73.500 and 68.250 and 70.810 | 99.980 | 90.220 and 88.260 and 87.780 | > 50 | – | > 35.21 | 2.76 | 2.46 | > 50 | > 12.5 | – | inhibition at 0.193125 µM (GX_P2V [2]): 6.47%; inhibition at 0.78 µM (GX_P2V [2]): 63%; inhibition at 1.39794 µM (GX_P2V [2]): 100%; inhibition at 1.69897 µM (GX_P2V [2]): 100%; EC50 (GX_P2V [2]; [25]): ~14.1 µM; EC50 (GX_P2V [2]; Vero C1008, read-out: EC50 against GX_P2V, repeated experiment): 10.6 µM; EC50 [4, 16]: 8.48 µM; inhibition at 6.25 µM (GX_P2V [6]; Vero C1008, read-out: Inhibition against GX_P2V, full-time treatment): ~100%; EC50 (SARS-CoV-2 trVLP [8]; Severe acute respiratory syndrome coronavirus 2, read-out: EC50 against SARS-CoV-2 trVLP): 1.42 µM
4 | COc1cc2c3cc1Oc1c(OC)c(OC)cc4c1[C@@H](Cc1ccc(O)c(c1)Oc1ccc(cc1)C[C@@H]3N(C)CC2)N(C)CC4 [Berbamine, berbamine] | 5.84 | – | 33.8 | 96.4 | 49.832 and 46.966 and 50.173 | 90.853 and 91.022 and 89.926 | 85.087 and 83.404 and 83.155 | 0.5 | 19.9 | 53.007 and 53.569 and 52.218 | 99.845 and 99.848 and 99.866 | 93.479 and 93.373 and 93.128 | > 50 | 8.15 | > 6.13 | 5.55 | 3.37 | > 50 | – | > 25 | EC50 ([1]; Huh-7, read-out: EC50 SADS): 3.33 µM; inhibition at 1.39794 µM (GX_P2V [2]): 100%; inhibition at 1.69897 µM (GX_P2V [2]): 100%; EC50 (GX_P2V [2]; [15]): 6.92 µM; EC50 [4, 24]: 1.87 µM; CC50 at 48 h (in vitro [13]): > 25 µM
5 | cycleanine | – | – | – | – | 37.174 and 37.913 and 46.924 | 60.248 and 61.546 and 62.312 | 56.735 and 54.305 and 57.336 | – | – | 60.950 and 60.215 and 58.803 | 92.758 and 93.389 and 93.191 | 62.451 and 61.926 and 63.133 | – | – | > 32.68 | – | – | – | – | – | EC50 ([1]; read-out: EC50 against SADS-CoV): 2.77 µM; Percentage of Inhibition (%) (GX_P2V [2]): 100%; EC50 (GX_P2V [2]; read-out: EC50 against GX_P2V): 1.49 µM; CC50 (Huh 7 cells): > 12.5 µM; EC50 ([4]; read-out: EC50 SARS-CoV-2pseudotypedvirus): 6.54 µM; EC50 (PEDV strain CV777; read-out: EC50 against PEDV): 0.34 µM; EC50 ([5]; read-out: SARS-CoV-2 (Vero E6) EC50): 8.91 µM; EC50 (SARS-CoV-2 trVLP [9]; read-out: EC50 SARS-CoV-2 trVLP): 1.53 µM; EC50 [10]: 3.2 µM; EC50 ([11]; read-out: EC50 against MERS-CoV pseudotyped virus): 2.45 µM
6 | COc1ccc2cc1Oc1ccc(cc1)C[C@H]1c3c(cc4c(c3Oc3cc5c(cc3OC)CCN(C)[C@@H]5C2)OCO4)CCN1C [Cepharanthine, reference compound] | 1.03 | 77.8 | 96.7 | 100 | 63.189 and 64.430 and 67.089 | 95.064 and 95.621 and 95.146 | 74.095 and 72.335 and 71.421 | 0.2 | 2.19 | 88.370 and 86.873 and 86.696 | 99.145 and 99.093 and 99.139 | 88.656 and 88.646 and 88.662 | > 12.5 | 1.6 | > 31.25 | 1.37 | 2.19 | > 50 | 11 | > 12.5 | EC50 ([1]; Huh-7, read-out: EC50 SADS): 0.4 µM; EC50 (GX_P2V [2]; [23]): < 2 µM; inhibition at 0.193125 µM (GX_P2V [2]): 46.4%; inhibition at 0.39 µM (GX_P2V [2]): 20.4%; EC50 (GX_P2V [2]; [25]): 1.78 µM; EC50 [4, 24]: 0.74 µM; Percentage of Inhibition (%) (PEDV strain CV777): 99.988%; Percentage of Inhibition (%) [10]: 99.382% and 89.647%; Percentage of Inhibition (%) [11]: 24.735%
